Source: ChEMBL document CHEMBL4411307, “N,N'-diaryl-bishydrazones in a biphenyl platform: Broad spectrum antifungal agents” (Eur J Med Chem, 2019)
In brackets after ≈: the same amount, converted by molar mass. Activity calls are given as the source filed them. The calls are words filed in the database; no cut-off is given here.

Experiments:
[1] = Selectivity index, ratio of compound concentration showing <25% hemolysis in mouse RBC to MIC for fluconazole/ITC-susceptible Candida albicans ATCC MYA-2310; assay type: toxicity; settings: mouse red blood cells (RBC), read-out: Selectivity Index
[2] = Selectivity index, ratio of compound concentration showing <25% hemolysis in mouse RBC to MIC for Aspergillus terreus ATCC MYA-3633; assay type: toxicity; settings: mouse red blood cells (RBC), read-out: Selectivity Index
[3] = Selectivity index, ratio of CC50 for human A549 cells to MIC for fluconazole/ITC-susceptible Candida albicans ATCC MYA-2310; assay type: toxicity; settings: read-out: Selectivity Index
[4] = Selectivity index, ratio of compound concentration showing <25% hemolysis in mouse RBC to MIC for fluconazole/ITC-resistant Candida albicans ATCC MYA-1003; assay type: toxicity; settings: mouse red blood cells (RBC), read-out: Selectivity Index
[5] = Selectivity index, ratio of CC50 for human A549 cells to MIC for Aspergillus flavus ATCC MYA-3631; assay type: toxicity; settings: read-out: Selectivity Index
[6] = Hemolytic activity in mouse RBC at […] ug/ml after 1 hr relative to control; assay type: ADME, cell-based, Erythrocyte; settings: red blood cells (erythrocytes), read-out: Activity
[7] = test system: Candida albicans; assay: Antifungal activity against fluconazole/ITC-resistant Candida albicans ATCC MYA-1237 measured after 48 hrs by CLSI M27-A3 protocol based method; assay type: functional; settings: ATCC MYA-1237, 48 h
[8] = test system: Aspergillus terreus; assay: Antifungal activity against Aspergillus terreus ATCC MYA-3633 measured after 48 hrs by CLSI M38-A2 protocol based method; assay type: functional; settings: ATCC MYA-3633, 48 h
[9] = test system: Candida albicans; assay: Antifungal activity against fluconazole/ITC-susceptible Candida albicans ATCC MYA-2310 measured after 48 hrs by CLSI M27-A3 protocol based method; assay type: functional; settings: ATCC MYA-2310, 48 h
[10] = Selectivity index, ratio of CC50 for human A549 cells to MIC for fluconazole/ITC-resistant Candida albicans ATCC MYA-1003; assay type: toxicity; settings: read-out: Selectivity Index
[11] = Selectivity index, ratio of compound concentration showing <25% hemolysis in mouse RBC to MIC for fluconazole/ITC-susceptible Candida albicans ATCC MYA-2876; assay type: toxicity; settings: mouse red blood cells (RBC), read-out: Selectivity Index
[12] = Selectivity index, ratio of compound concentration showing <25% hemolysis in mouse RBC to MIC for fluconazole/ITC-resistant Candida albicans ATCC 64124; assay type: toxicity; settings: mouse red blood cells (RBC), read-out: Selectivity Index
[13] = Selectivity index, ratio of compound concentration showing <25% hemolysis in mouse RBC to MIC for Aspergillus nidulans ATCC 38163; assay type: toxicity; settings: mouse red blood cells (RBC), read-out: Selectivity Index
[14] = Selectivity index, ratio of compound concentration showing <25% hemolysis in mouse RBC to MIC for fluconazole/ITC-resistant Candida albicans ATCC 10231; assay type: toxicity; settings: mouse red blood cells (RBC), read-out: Selectivity Index
[15] = Selectivity index, ratio of CC50 for human A549 cells to MIC for Candida parapsilosis ATCC 22019; assay type: toxicity; settings: read-out: Selectivity Index
[16] = test system: Candida parapsilosis; assay: Antifungal activity against Candida parapsilosis ATCC 22019 measured after 48 hrs by CLSI M27-A3 protocol based method; assay type: functional; settings: Lodderomyces parapsilosis, ATCC 22019, 48 h
[17] = test system: Nakaseomyces glabratus; assay: Antifungal activity against Candida glabrata ATCC 2001 measured after 48 hrs by CLSI M27-A3 protocol based method; assay type: functional; settings: CBS 138, 48 h
[18] = test system: Aspergillus nidulans; assay: Antifungal activity against Aspergillus nidulans ATCC 38163 measured after 48 hrs by CLSI M38-A2 protocol based method; assay type: functional; settings: ATCC 38163, 48 h
[19] = test system: Pichia kudriavzevii; assay: Antifungal activity against Candida krusei ATCC 6258 measured after 48 hrs by CLSI M27-A3 protocol based method; assay type: functional; settings: ATCC 6258, 48 h
[20] = Hemolytic activity in mouse RBC at 62.5 ug/ml after 1 hr relative to control; assay type: ADME, cell-based, Erythrocyte; settings: red blood cells (erythrocytes), read-out: Activity
[21] = test system: Candida albicans; assay: Antifungal activity against fluconazole/ITC-resistant Candida albicans ATCC 10231 measured after 48 hrs by CLSI M27-A3 protocol based method; assay type: functional; settings: ATCC 10231, 48 h
[22] = Selectivity index, ratio of CC50 for human A549 cells to MIC for fluconazole/ITC-resistant Candida albicans ATCC 90819; assay type: toxicity; settings: read-out: Selectivity Index
[23] = Selectivity index, ratio of compound concentration showing <25% hemolysis in mouse RBC to MIC for Candida glabrata ATCC 2001; assay type: toxicity; settings: mouse red blood cells (RBC), read-out: Selectivity Index
[24] = Selectivity index, ratio of CC50 for human A549 cells to MIC for fluconazole/ITC-resistant Candida albicans ATCC MYA-1237; assay type: toxicity; settings: read-out: Selectivity Index
[25] = Hemolytic activity in mouse RBC at 3.9 ug/ml after 1 hr relative to control; assay type: ADME, cell-based, Erythrocyte; settings: red blood cells (erythrocytes), read-out: Activity
[26] = test system: Candida albicans; assay: Antifungal activity against fluconazole/ITC-resistant Candida albicans ATCC 64124 measured after 48 hrs by CLSI M27-A3 protocol based method; assay type: functional; settings: ATCC 64124, 48 h
[27] = Hemolytic activity in mouse RBC at 31.3 ug/ml after 1 hr relative to control; assay type: ADME, cell-based, Erythrocyte; settings: red blood cells (erythrocytes), read-out: Activity
[28] = Selectivity index, ratio of CC50 for human A549 cells to MIC for Candida krusei ATCC 6258; assay type: toxicity; settings: read-out: Selectivity Index
[29] = test system: A549; assay: Cytotoxicity against human A549 cells after 24 hrs by resazurin based assay; assay type: cell-based; settings: a549, 24 h
[30] = Hemolytic activity in mouse RBC at 7.8 ug/ml after 1 hr relative to control; assay type: ADME, cell-based, Erythrocyte; settings: red blood cells (erythrocytes), read-out: Activity
[31] = Selectivity index, ratio of CC50 for human A549 cells to MIC for fluconazole/ITC-susceptible Candida albicans ATCC MYA-2876; assay type: toxicity; settings: read-out: Selectivity Index
[32] = Selectivity index, ratio of compound concentration showing <25% hemolysis in mouse RBC to MIC for Candida parapsilosis ATCC 22019; assay type: toxicity; settings: mouse red blood cells (RBC), read-out: Selectivity Index
[33] = Selectivity index, ratio of CC50 for human A549 cells to MIC for Aspergillus nidulans ATCC 38163; assay type: toxicity; settings: read-out: Selectivity Index
[34] = test system: Candida albicans; assay: Antifungal activity against fluconazole/ITC-resistant Candida albicans ATCC 90819 measured after 48 hrs by CLSI M27-A3 protocol based method; assay type: functional; settings: ATCC 90819, 48 h
[35] = Selectivity index, ratio of CC50 for human A549 cells to MIC for Candida glabrata ATCC 2001; assay type: toxicity; settings: read-out: Selectivity Index
[36] = test system: Listeria monocytogenes; assay: Antibacterial activity against Listeria monocytogenes; assay type: functional, organism-based
[37] = test system: Staphylococcus aureus; assay: Antibacterial activity against methicillin-resistant Staphylococcus aureus; assay type: functional, organism-based
[38] = Selectivity index, ratio of compound concentration showing <25% hemolysis in mouse RBC to MIC for Candida krusei ATCC 6258; assay type: toxicity; settings: mouse red blood cells (RBC), read-out: Selectivity Index
[39] = Selectivity index, ratio of CC50 for human A549 cells to MIC for fluconazole/ITC-resistant Candida albicans ATCC 64124; assay type: toxicity; settings: read-out: Selectivity Index
[40] = test system: Candida albicans; assay: Antifungal activity against fluconazole/ITC-susceptible Candida albicans ATCC MYA-2876 measured after 48 hrs by CLSI M27-A3 protocol based method; assay type: functional; settings: ATCC MYA-2876, 48 h
[41] = Selectivity index, ratio of compound concentration showing <25% hemolysis in mouse RBC to MIC for fluconazole/ITC-resistant Candida albicans ATCC 90819; assay type: toxicity; settings: mouse red blood cells (RBC), read-out: Selectivity Index
[42] = Selectivity index, ratio of CC50 for human A549 cells to MIC for fluconazole/ITC-resistant Candida albicans ATCC 10231; assay type: toxicity; settings: read-out: Selectivity Index
[43] = test system: Enterococcus; assay: Antibacterial activity against vancomycin-resistant Enterococcus; assay type: functional, organism-based
[44] = Selectivity index, ratio of CC50 for human A549 cells to MIC for Aspergillus terreus ATCC MYA-3633; assay type: toxicity; settings: read-out: Selectivity Index
[45] = test system: Aspergillus flavus; assay: Antifungal activity against Aspergillus flavus ATCC MYA-3631 measured after 48 hrs by CLSI M38-A2 protocol based method; assay type: functional; settings: ATCC MYA-3631, 48 h
[46] = Selectivity index, ratio of compound concentration showing <25% hemolysis in mouse RBC to MIC for fluconazole/ITC-resistant Candida albicans ATCC MYA-1237; assay type: toxicity; settings: mouse red blood cells (RBC), read-out: Selectivity Index
[47] = test system: BEAS-2B; assay: Cytotoxicity against human BEAS2B cells after 24 hrs by resazurin based assay; assay type: cell-based
[48] = Selectivity index, ratio of compound concentration showing <25% hemolysis in mouse RBC to MIC for Aspergillus flavus ATCC MYA-3631; assay type: toxicity; settings: mouse red blood cells (RBC), read-out: Selectivity Index
[49] = test system: Candida albicans; assay: Antifungal activity against fluconazole/ITC-resistant Candida albicans ATCC MYA-1003 measured after 48 hrs by CLSI M27-A3 protocol based method; assay type: functional; settings: ATCC MYA-1003, 48 h
[50] = Hemolytic activity in mouse RBC at […] after 1 hr relative to control; assay type: ADME, cell-based, Erythrocyte; settings: red blood cells (erythrocytes), read-out: Activity; further: tested at 0.48 µg/mL
[51] = Hemolytic activity in mouse RBC at 1.95 ug/ml after 1 hr relative to control; assay type: ADME, cell-based, Erythrocyte; settings: red blood cells (erythrocytes), read-out: Activity

SMILES: Fc1ccc(N/N=C/c2ccc(-c3cccc(/C=N/Nc4ccc(F)cc4F)c3)cc2)c(F)c1
- selectivity ratio [1]: 1 to 32
- selectivity ratio [2]: 1 to 32
- selectivity ratio [3]: 1.1
- selectivity ratio [4]: 1 to 32
- selectivity ratio [5]: 2.1
- hemolysis at 1 h, 15.6 ug/ml ([6]; at 15.6 µg/mL): 14.6%
- hemolysis at 1 h, 0.975 ug/ml [6]: 0%
- MIC [7]: 7.8 µg/mL (≈ 16.9 µM)
- MIC [8]: 31.3 µg/mL (≈ 67.7 µM)
- MIC [9]: 15.6 µg/mL (≈ 33.7 µM)
- selectivity ratio [10]: 2.1
- selectivity ratio [11]: 1 to 32
- selectivity ratio [12]: 1 to 32
- selectivity ratio [13]: 1 to 32
- selectivity ratio [14]: 1 to 32
- selectivity ratio [15]: 0.5
- MIC [16]: 31.3 µg/mL (≈ 67.7 µM)
- MIC [17]: 15.6 µg/mL (≈ 33.7 µM)
- MIC [18]: 7.8 µg/mL (≈ 16.9 µM)
- MIC [19]: 1.95 µg/mL (≈ 4.22 µM)
- hemolysis at 1 h, 62.5 ug/ml [20]: 23.5%
- MIC [21]: 3.9 µg/mL (≈ 8.43 µM)
- selectivity ratio [22]: 1.1
- selectivity ratio [23]: 1 to 32
- selectivity ratio [24]: 2.1
- hemolysis at 1 h, 3.9 ug/ml [25]: 4.2%
- MIC [26]: 7.8 µg/mL (≈ 16.9 µM)
- hemolysis at 1 h, 31.3 ug/ml [27]: 14.6%
- selectivity ratio [28]: 8.4
- CC50 [29]: 16.4 µg/mL (≈ 35.5 µM)
- hemolysis at 1 h, 7.8 ug/ml [30]: 8.6%
- selectivity ratio [31]: 1.1
- selectivity ratio [32]: 1 to 32
- selectivity ratio [33]: 2.1
- MIC [34]: 15.6 µg/mL (≈ 33.7 µM)
- selectivity ratio [35]: 1.1
- Activity [36]: inactive
- Activity [37]: inactive
- selectivity ratio [38]: 1 to 32
- selectivity ratio [39]: 2.1
- MIC [40]: 15.6 µg/mL (≈ 33.7 µM)
- selectivity ratio [41]: 1 to 32
- selectivity ratio [42]: 4.2
- Activity [43]: inactive
- selectivity ratio [44]: 0.5
- MIC [45]: 7.8 µg/mL (≈ 16.9 µM)
- selectivity ratio [46]: 1 to 32
- CC50 [47]: 16.9 µg/mL (≈ 36.5 µM)
- selectivity ratio [48]: 1 to 32
- MIC [49]: 7.8 µg/mL (≈ 16.9 µM)
- hemolysis at 1 h, […] [50]: 1.6%
- hemolysis at 1 h, 1.95 ug/ml [51]: 4.5%
